According to PubChem BioAssay (NCI):
“And” between values parts separate entries of the source, which are not always exact repeats. Equal values may be shown once.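 Method: 48-hour compound exposure of cells in 96-well plates, five concentrations, linear interpolation of endpoints. GI50 marks 50% less growth. Definition used: TGI = concentration required for complete inhibition of growth.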

How the values were obtained:
Assay in all cases: DTP human tumour cell line panel, 48 h
[1] = test system: SK-MEL-28 melanoma
[2] = test system: OVCAR-8 ovarian
[3] = test system: SW-620 colon
[4] = test system: CAKI-1 renal
[5] = test system: MCF7 breast
[6] = test system: BT-549 breast
[7] = test system: SK-MEL-2 melanoma
[8] = test system: UACC-62 melanoma
[9] = test system: 786-0 renal
[10] = test system: NCI-H522 lung

Compound	GI50 [1]	TGI [1]	GI50 [2]	TGI [2]	GI50 [3]	TGI [3]	GI50 [4]	TGI [4]	GI50 [5]	TGI [5]	GI50 [6]	TGI [6]	GI50 [7]	TGI [7]	GI50 [8]	TGI [8]	GI50 [9]	TGI [9]	GI50 [10]	TGI [10]
[N-]=[N+]=NCCCn1c2c(c3ccc([N+](=O)[O-])cc3c1=O)C(=O)c1cc3c(cc1-2)OCO3	14.4 µM	> 100 µM	< 0.0446 µM	16.6 µM	< 0.0285 µM	> 100 µM	< 0.01 µM	< 0.0152 µM	0.158 µM	7.68 µM	< 0.01 µM	< 0.01 µM	2.58 µM	22.3 µM	< 0.0211 µM	0.782 µM	< 0.0141 µM	< 0.025 µM	0.109 µM	0.844 µM
OB(O)c1ccccc1C#Cc1ccccc1B(O)O	–	99.3 µM	–	> 100 µM	–	> 100 µM	–	22.1 µM	–	31.3 µM	–	47.8 µM	–	34.7 µM	–	30.8 µM	–	> 100 µM	–	41.7 µM
CNCC/C=C1\c2cc3c(cc2-c2c1c1cc(OC)c(OC)cc1c(=O)n2C)OCO3	11.8 µM	> 69.4 µM	0.248 µM	6.55 µM	< 0.0142 µM	16.4 µM	0.278 µM	5.92 µM	0.161 µM	> 36.9 µM	3.66 µM	22.5 µM	9.68 µM	> 100 µM	0.344 µM	2.3 µM	0.587 µM	33 µM	0.122 µM	16.2 µM
Cc1ccc(S(=O)(=O)OCC#CCOS(=O)(=O)c2ccc(C)cc2)cc1	2.69 µM	7.8 µM	2.45 µM	> 21.5 µM	1.8 µM	3.96 µM	0.512 µM	1.5 µM	3.21 µM	16.7 µM	4.57 µM	9.68 µM	3.07 µM	9.66 µM	3.96 µM	12.6 µM	2.57 µM	7.15 µM	1.19 µM	3.12 µM
O=C(O)C1CC=CCC1C(=O)Nc1cccc(O)c1 (stereo not given)	–	> 100 µM	–	> 100 µM	–	> 100 µM	–	> 100 µM	–	> 100 µM	–	> 100 µM	–	> 100 µM	–	> 100 µM	–	> 100 µM	–	> 100 µM
COc1cc(Cl)cc(-c2nn(-c3cccc(NC(=O)Nc4cccc(C(F)(F)F)c4)c3)cc2-c2ccncc2)c1	2.53 µM	12.1 µM	1.12 µM	4.88 µM	2.3 µM	26.8 µM	1.29 µM	8.9 µM	1.48 µM	7.57 µM	2.22 µM	5.6 µM	1.29 µM	3.08 µM	1.47 µM	3.84 µM	1.94 µM	6.78 µM	0.455 µM	2.51 µM
Cc1c(Cl)c(=O)oc2cc(OC/C=C3\CCC(=O)O3)ccc12	19.7 µM	50 µM	20 µM	47.2 µM	13.5 µM	35.6 µM	11.6 µM	30.2 µM	13.4 µM	37.8 µM	15.7 µM	32 µM	15.7 µM	40.5 µM	16.8 µM	33.9 µM	12.8 µM	29.3 µM	11 µM	24.2 µM
O=C1Nc2cc(-c3cccc(O)c3)ccc2/C1=C/c1ccc[nH]1	1.73 µM	3.59 µM	3.45 µM	49.2 µM	1.17 µM	8.27 µM	1.79 µM	5.91 µM	0.257 µM	2.44 µM	0.506 µM	3.96 µM	1.48 µM	6.77 µM	2.63 µM	8.89 µM	2.22 µM	7.32 µM	1.6 µM	14.1 µM
CCN(CC)c1c(-c2ccccc2)n[nH]c1C(=O)OC	22.2 µM	> 100 µM	15.5 µM	44.9 µM	26.6 µM	> 100 µM	25.8 µM	55.5 µM	23.1 µM	54.4 µM	16.4 µM	51.1 µM	42.5 µM	> 100 µM	15.5 µM	37.7 µM	32.7 µM	96.2 µM	18.5 µM	50.7 µM
CS(=O)(=O)Nc1cc(-c2ccc3ncnc(Nc4ccc(F)c(Cl)c4)c3c2)cnc1Cl	0.345 µM	9.61 µM	1.68 µM and 1.72 µM	12.9 µM and > 40.4 µM	0.741 µM and 1.01 µM	11.2 µM and 11.9 µM	0.455 µM and 0.326 µM	9.55 µM and 2.23 µM	0.216 µM and 0.227 µM	11.4 µM and 11.8 µM	0.307 µM and 0.287 µM	3.36 µM and 2.68 µM	0.289 µM and 0.441 µM	1.53 µM and 2.32 µM	0.255 µM	1.56 µM	0.638 µM and 0.671 µM	5.45 µM and 6.65 µM	0.4 µM and 0.815 µM	3.9 µM and 9.8 µM
CC(C)(C)OC(=O)NCCCCn1c2c(c3ccccc3c1=O)C(=O)c1ccccc1-2	38.2 µM	> 100 µM	8.75 µM	30.3 µM	25.3 µM	> 100 µM	10.7 µM	37.2 µM	21.3 µM	> 100 µM	24.5 µM	80.6 µM	52.1 µM	> 100 µM	10.9 µM	27.8 µM	21.7 µM	55.6 µM	27 µM	> 100 µM
c1ccc(CN2CCc3[nH]c4ccccc4c3C2)cc1	–	32.8 µM	–	> 77.4 µM	–	50 µM	–	> 100 µM	–	31.9 µM	–	> 100 µM	–	41.1 µM	–	66.9 µM	–	44.5 µM	–	42.4 µM
